Test system: IMQ-induced psoriasis in mice
Assay: Imiquimod-induced psoriasis model in mice, PASI scoring of back skin inflammation
Assay type: in vivo, Balb/c mice
From the text: As already explained, psoriasis is a chronic inflammatory skin disorder. It occurs when the immune system mistakes the skin cells as a pathogen, and sends out faulty signals that speed up the proliferation of skin cells. Imiquimod (IMQ) is a potent immune activator that induces and exacerbates psoriasis when applied topically. Daily application of IMQ on mouse back skin induces inflamed scaly skin lesions resembling plaque type psoriasis. IMQ-induced psoriasis in mice has been long used as a model for human psoriasis.
The efficacy of oral administration of a FABP4-inhibitor to treat psoriasis in the IMQ-induced model in mice was tested.
The test was carried out using Balb/c mice (Envigo RMS (Israel) Ltd), average (±SD) body weight at study initiation was 18.2±0.81 g. Animals were fed ad libitum a commercial rodent diet (Teklad Certified Global 18% Protein Diet, Harlan cat #2018SC). Animals had free access to sterilized and acidified drinking water (pH between 2.5 and 3.5).
The tests included six groups of 3-10 mice per group, as follows: • one naïve (no IMQ) group; • one Vehicle control group, the vehicle formulation being 10% 1-methyl-2-pyrrolidone and 5% Cremophor EL in water for injection (WFI); • one treated group that received Cortisone acetate as a positive control—one tablet (25 mg each, Rekah Pharm) was triturated with a mortar. The powder was dissolved in 2.5 ml WFI yielding 10 mg/ml. The compound was administrated per-os at 12.5 mg/kg BW (body weight) mouse of the compound once daily for six days starting the first day of IMQ application (Day 1); and • three treated groups that received BMS (i.e. Test Item) at three doses—5, 15 and 30 mg/kg. BMS powder (Cayman Chemical) was dissolved in ethanol to create a 30 mg/ml solution. This stock solution was diluted in the Vehicle to create three different concentrations 0.5, 1.5 and 3 mg/ml. A new aqueous solution was prepared in each day. BMS was administrated per-os once daily for six days starting the first day of IMQ application (Day 1).
IMQ-induction: A daily topical dose of 62.5 mg of commercially available IMQ cream (5%) (Aldara; 3M Pharmaceuticals) was applied to animals from all the groups except for the naïve group on the shaved back for six consecutive days, translated to a daily dose of 3.125 mg of the active compound.
Experiment conditions: All animals except for the naïve group received IMQ cream (Aldara™ 5% cream, #3 Pharmaceuticals) applied on the back skin daily for six consecutive days starting on Day 1 (˜60 mg/mouse). The Test Item, Vehicle and Cortisone acetate were administered per-os daily for 6 days. During the study morbidity and mortality, body weight (BW), clinical signs, and Psoriasis Area and Severity Index (PASI) scoring were performed and representative pictures were taken. The animals were sacrificed on Day 9.
Scoring was performed by a trained observer in a “blinded” way, i.e., being unaware of the treatment. To score the severity of inflammation of the back skin, the clinical PASI scoring was employed. Erythema, scaling, and thickening were scored independently on a scale from 0 to 4: 0, none; 1, slight; 2, moderate; 3, marked; 4, very marked. The cumulative score (erythema plus scaling plus thickening), PASI scoring, served as a measure of the severity of inflammation (scale 0-12).

[1] = 15 mg/kg per-os once daily for six days
[2] = BMS treated groups (5, 15 and 30 mg/kg per-os), Day 7

CCc1c(-c2ccccc2)c(-c2ccccc2)nn1-c1ccccc1-c1cccc(OCC(=O)O)c1 [BMS, 2-[[2′-(5-ethyl-3,4-diphenyl-1H-pyrazol-1-yl)[1,1′-biphenyl]-3-yl]oxy]-acetic acid]
erythema severity score, comparison of doses [1]: best results | scaling severity score, comparison of doses [1]: best results | skin thickness severity score, comparison of doses [1]: best results | severity of skin inflammation (PASI scoring) (BMS treated groups (5, 15 and 30 mg/kg per-os once daily for six days), Day 7): significant amelioration | erythema severity score [2]: significant amelioration | scaling severity score [2]: significant amelioration | skin thickness severity score [2]: significant amelioration | impact on the inflammation severity, comparison of doses (middle dose 15 mg/kg per-os once daily for six days): highest impact

— patent US11229624B2, “FABP4 as a therapeutic target in skin diseases” (TICURE LTD., priority 2016, dated 2022)
